#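 Test compounds were applied to cells in 96-well plates for 48 hours at 5 doses. TGI: total growth inhibition.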
# How the values were obtained:
# Assay in all cases: inhibition of tumour cell growth, NCI panel, 48 h
# OVCAR-5 ovarian = tested on: OVCAR-5 ovarian
# RXF 393 renal = tested on: RXF 393 renal
# IGROV1 ovarian = tested on: IGROV1 ovarian
# NCI-H460 lung = tested on: NCI-H460 lung
# HCT-15 colon = tested on: HCT-15 colon
# SK-MEL-5 melanoma = tested on: SK-MEL-5 melanoma
# KM20L2 colon = tested on: KM20L2 colon
# HOP-92 NSCLC = tested on: HOP-92 NSCLC
# KM12 colon = tested on: KM12 colon
# TK-10 renal = tested on: TK-10 renal
# SF-295 CNS = tested on: SF-295 CNS
# DLD-1 colon = tested on: DLD-1 colon
# EKVX NSCLC = tested on: EKVX NSCLC
# HT29 colon = tested on: HT29 colon
# SW-620 colon = tested on: SW-620 colon
# A549 NSCLC = tested on: A549 NSCLC
# K-562 leukemia = tested on: K-562 leukemia
# NCI-H23 lung = tested on: NCI-H23 lung
# SK-OV-3 ovarian = tested on: SK-OV-3 ovarian
# NCI-H226 lung = tested on: NCI-H226 lung
# SNB-78 CNS = tested on: SNB-78 CNS
# DMS 273 small cell lung = tested on: DMS 273 small cell lung
# COLO 205 colon = tested on: COLO 205 colon
# OVCAR-4 ovarian = tested on: OVCAR-4 ovarian
# M19-MEL melanoma = tested on: M19-MEL melanoma
# SN12C renal = tested on: SN12C renal
# MOLT-4 leukemia = tested on: MOLT-4 leukemia
# SF-539 CNS = tested on: SF-539 CNS
# SR leukemia = tested on: SR leukemia
# RXF-631 renal = tested on: RXF-631 renal
# OVCAR-3 ovarian = tested on: OVCAR-3 ovarian
# SK-MEL-28 melanoma = tested on: SK-MEL-28 melanoma
# SK-MEL-2 melanoma = tested on: SK-MEL-2 melanoma
# LXFL 529 NSCLC = tested on: LXFL 529 NSCLC
# HCT-116 colon = tested on: HCT-116 colon
# UACC-257 melanoma = tested on: UACC-257 melanoma
# ACHN renal = tested on: ACHN renal
# CAKI-1 renal = tested on: CAKI-1 renal
# UACC-62 melanoma = tested on: UACC-62 melanoma
# RPMI-8226 leukemia = tested on: RPMI-8226 leukemia
# DMS 114 small cell lung = tested on: DMS 114 small cell lung
# XF 498 CNS = tested on: XF 498 CNS
# U251 CNS = tested on: U251 CNS
# SNB-75 CNS = tested on: SNB-75 CNS
# M14 melanoma = tested on: M14 melanoma
# MALME-3M melanoma = tested on: MALME-3M melanoma
# 786-0 renal = tested on: 786-0 renal
# OVCAR-8 ovarian = tested on: OVCAR-8 ovarian
# NCI-H522 lung = tested on: NCI-H522 lung
# SF-268 CNS = tested on: SF-268 CNS
# SNB-19 CNS = tested on: SNB-19 CNS
# HCC-2998 colon = tested on: HCC-2998 colon
# UO-31 renal = tested on: UO-31 renal
# CCRF-CEM leukemia = tested on: CCRF-CEM leukemia
# LOX IMVI melanoma = tested on: LOX IMVI melanoma
# HOP-18 NSCLC = tested on: HOP-18 NSCLC
# HOP-62 NSCLC = tested on: HOP-62 NSCLC
structure (smiles),measurement,setting,value
Nc1ncnc2c1N=CN(Oc1ccccc1)N2,TGI,OVCAR-5 ovarian,> 100 µM
same,TGI,RXF 393 renal,> 100 µM
same,TGI,IGROV1 ovarian,> 100 µM
same,TGI,NCI-H460 lung,> 100 µM
same,TGI,HCT-15 colon,> 100 µM
same,TGI,SK-MEL-5 melanoma,> 100 µM
same,TGI,KM20L2 colon,> 100 µM
same,TGI,HOP-92 NSCLC,> 100 µM
same,TGI,KM12 colon,> 100 µM
same,TGI,TK-10 renal,> 100 µM
same,TGI,SF-295 CNS,> 100 µM
same,TGI,DLD-1 colon,> 100 µM
same,TGI,EKVX NSCLC,> 100 µM
same,TGI,HT29 colon,> 100 µM
same,TGI,SW-620 colon,> 100 µM
same,TGI,A549 NSCLC,> 100 µM
same,TGI,K-562 leukemia,> 100 µM
same,TGI,NCI-H23 lung,> 100 µM
same,TGI,SK-OV-3 ovarian,> 100 µM
same,TGI,NCI-H226 lung,> 100 µM
same,TGI,SNB-78 CNS,> 100 µM
same,TGI,DMS 273 small cell lung,> 100 µM
same,TGI,COLO 205 colon,> 100 µM
same,TGI,OVCAR-4 ovarian,> 100 µM
same,TGI,M19-MEL melanoma,> 100 µM
same,TGI,SN12C renal,43.7 µM
same,TGI,MOLT-4 leukemia,> 100 µM
same,TGI,SF-539 CNS,> 100 µM
same,TGI,SR leukemia,> 100 µM
same,TGI,RXF-631 renal,> 100 µM
same,TGI,OVCAR-3 ovarian,> 100 µM
same,TGI,SK-MEL-28 melanoma,> 100 µM
same,TGI,SK-MEL-2 melanoma,> 100 µM
same,TGI,LXFL 529 NSCLC,> 100 µM
same,TGI,HCT-116 colon,> 100 µM
same,TGI,UACC-257 melanoma,> 100 µM
same,TGI,ACHN renal,> 100 µM
same,TGI,CAKI-1 renal,> 100 µM
same,TGI,UACC-62 melanoma,> 100 µM
same,TGI,RPMI-8226 leukemia,> 100 µM
same,TGI,DMS 114 small cell lung,> 100 µM
same,TGI,XF 498 CNS,> 100 µM
same,TGI,U251 CNS,> 100 µM
same,TGI,SNB-75 CNS,> 100 µM
same,TGI,M14 melanoma,> 100 µM
same,TGI,MALME-3M melanoma,32.2 µM
same,TGI,786-0 renal,> 100 µM
same,TGI,OVCAR-8 ovarian,> 100 µM
CC(C)C(=O)CC(c1ccc(Br)cc1)N1N=C(C(C)C)CC1c1ccc(Br)cc1 (centres undefined),TGI,OVCAR-5 ovarian,> 100 µM
same,TGI,RXF 393 renal,> 100 µM
same,TGI,NCI-H460 lung,> 100 µM
same,TGI,HCT-15 colon,> 100 µM
same,TGI,KM20L2 colon,> 100 µM
same,TGI,HOP-92 NSCLC,> 100 µM
same,TGI,KM12 colon,> 100 µM
same,TGI,TK-10 renal,> 100 µM
same,TGI,EKVX NSCLC,> 100 µM
same,TGI,NCI-H522 lung,> 100 µM
same,TGI,HT29 colon,> 100 µM
same,TGI,SW-620 colon,> 100 µM
same,TGI,A549 NSCLC,> 100 µM
same,TGI,K-562 leukemia,> 100 µM
same,TGI,SF-268 CNS,> 100 µM
same,TGI,NCI-H23 lung,> 100 µM
same,TGI,SK-OV-3 ovarian,> 100 µM
same,TGI,NCI-H226 lung,> 100 µM
same,TGI,DMS 273 small cell lung,> 100 µM
same,TGI,COLO 205 colon,> 100 µM
same,TGI,OVCAR-4 ovarian,> 100 µM
same,TGI,M19-MEL melanoma,> 100 µM
same,TGI,SN12C renal,> 100 µM
same,TGI,SNB-19 CNS,> 100 µM
same,TGI,MOLT-4 leukemia,> 100 µM
same,TGI,HCC-2998 colon,> 100 µM
same,TGI,SF-539 CNS,> 100 µM
same,TGI,SR leukemia,> 100 µM
same,TGI,OVCAR-3 ovarian,> 100 µM
same,TGI,SK-MEL-28 melanoma,> 100 µM
same,TGI,SK-MEL-2 melanoma,> 100 µM
same,TGI,LXFL 529 NSCLC,> 100 µM
same,TGI,HCT-116 colon,> 100 µM
same,TGI,ACHN renal,> 100 µM
same,TGI,CAKI-1 renal,> 100 µM
same,TGI,UO-31 renal,> 100 µM
same,TGI,CCRF-CEM leukemia,> 100 µM
same,TGI,LOX IMVI melanoma,> 100 µM
same,TGI,HOP-18 NSCLC,> 100 µM
same,TGI,HOP-62 NSCLC,> 100 µM
same,TGI,DMS 114 small cell lung,> 100 µM
same,TGI,XF 498 CNS,59 µM
same,TGI,U251 CNS,> 100 µM
same,TGI,M14 melanoma,> 100 µM
same,TGI,MALME-3M melanoma,> 100 µM
same,TGI,OVCAR-8 ovarian,> 100 µM
